{"source": "PubChem BioAssay AID1259409", "about": "(Chemical Carcinogenesis Research Information System (CCRIS), 2018)", "origin": "cited, not measured here", "test_system": "rodent chemically induced tumor inhibition, incidence and multiplicity", "experiment": "CCRIS tumor inhibitor studies", "conditions": "for outcome: Carcinogen: 7,12-DIMETHYLBENZ[A]ANTHRACENE (57-97-6), Target Tissue: Type of Lesion: MAMMARY: ADENOCARCINOMA", "data": [{"smiles": "CCCCCCCCCc1ccc(O)cc1", "values": [{"measurement": "tumour outcome (control, treated, inhibition, significance)", "setting": "Carcinogen: 7,12-DIMETHYLBENZ[A]ANTHRACENE, 57-97-6, Dose [Inhibitor]: 0, 25 PPM IN DIET FOR 50 WK BEGINNING 1 WK POST-CARCINOGEN DOSE (STUDY DURATION: 51 WK), Route [Inhibitor]: ORAL, Species: RAT, Strain/Sex: SPRAGUE-DAWLEY/FEMALE, Target Tissue: Type of Lesion: OVARY: ADENOCARCINOMA, Dose [Carcinogen]: 0.01 ML OF 0.5% DMBA IN OLIVE OIL INTO THE LEFT OVARY, ONCE, UNDER PENTOBARBITAL ANESTHESIA, Promoter: NONE USED", "value": "7/20 (35%), 1/20 (5%), 86%, p=0.02"}, {"measurement": "tumour outcome (control, treated, inhibition, significance)", "setting": "Carcinogen: 7,12-DIMETHYLBENZ[A]ANTHRACENE, 57-97-6, Dose [Inhibitor]: 0, 250 PPM IN DIET FOR 50 WK BEGINNING 1 WK POST-CARCINOGEN DOSE (STUDY DURATION: 51 WK), Route [Inhibitor]: ORAL, Species: RAT, Strain/Sex: SPRAGUE-DAWLEY/FEMALE, Target Tissue: Type of Lesion: OVARY: ADENOCARCINOMA, Dose [Carcinogen]: 0.01 ML OF 0.5% DMBA IN OLIVE OIL INTO THE LEFT OVARY, ONCE, UNDER PENTOBARBITAL ANESTHESIA, Promoter: NONE USED", "value": "7/20 (35%), 1/20 (5%), 86%, p=0.02"}]}, {"smiles": "C=CCSC", "values": [{"measurement": "tumour outcome (control, treated, inhibition, significance)", "setting": "Carcinogen: 7,12-DIMETHYLBENZ[A]ANTHRACENE, 57-97-6, Dose [Inhibitor]: 0, 1.8 MMOL/KG BW IN CORN OIL 96, 48 AND 24 HR PRIOR TO CARCINOGEN TREATMENT (STUDY DURATION: 25 WK), Route [Inhibitor]: GAVAGE, Species: RAT, Strain/Sex: SPRAGUE-DAWLEY/FEMALE, Target Tissue: Type of Lesion: MAMMARY GLAND: ADENOCARCINOMA, Dose [Carcinogen]: 10 MG ONCE, Promoter: NONE USED", "value": "92%, 72%, 22%, p<0.05"}]}, {"smiles": "O=C(O)[C@@H](O)[C@@H](O)[C@H](O)[C@@H](O)C(=O)O", "values": [{"measurement": "tumour outcome (control, treated, inhibition, significance)", "setting": "Carcinogen: 7,12-DIMETHYLBENZ[A]ANTHRACENE, 57-97-6, Dose [Inhibitor]: 0, 2% IN DIET FOR THE DURATION OF STUDY BEGINNING 1 WK PRIOR TO CARCINOGEN DOSE (STUDY DURATION: 105 WK), Route [Inhibitor]: ORAL, Species: RAT, Strain/Sex: SPRAGUE-DAWLEY/FEMALE, Target Tissue: Type of Lesion: MAMMARY GLAND: TUMOR, Dose [Carcinogen]: 15 MG IN 1 ML SESAME OIL ONCE, Promoter: NONE USED", "value": "88%, 80%, 9%, not significant"}, {"measurement": "tumour outcome (control, treated, inhibition, significance)", "setting": "Carcinogen: 7,12-DIMETHYLBENZ[A]ANTHRACENE, 57-97-6, Dose [Inhibitor]: 0, 128 MMOL/KG OF DIET FOR 15.5 WK BEGINNING 10 D POST CARCINOGEN DOSE (STUDY DURATION: 17 WK), Route [Inhibitor]: ORAL, Species: RAT, Strain/Sex: SPRAGUE-DAWLEY/FEMALE, Target Tissue: Type of Lesion: MAMMARY GLAND: TUMOR, Dose [Carcinogen]: 15 MG IN 1 ML OF SESAME OIL ONCE AT 50 D OF AGE, Promoter: NONE USED", "value": "92%, 58%, 37%, not calculated"}, {"measurement": "tumour outcome (control, treated, inhibition, significance)", "setting": "Carcinogen: 7,12-DIMETHYLBENZ[A]ANTHRACENE, 57-97-6, Dose [Inhibitor]: 0, 128 MMOL/KG OF DIET FOR 18.5 WK BEGINNING 10 D PRIOR TO CARCINOGEN DOSE (STUDY DURATION: 18.5 WK), Route [Inhibitor]: ORAL, Species: RAT, Strain/Sex: SPRAGUE-DAWLEY/FEMALE, Target Tissue: Type of Lesion: MAMMARY GLAND: TUMOR, Dose [Carcinogen]: 15 MG IN 1 ML OF SESAME OIL ONCE AT 50 D OF AGE, Promoter: NONE USED", "value": "83%, 50%, 40%, not calculated"}, {"measurement": "tumour outcome (control, treated, inhibition, significance)", "setting": "Carcinogen: 7,12-DIMETHYLBENZ[A]ANTHRACENE, 57-97-6, Dose [Inhibitor]: 0, 128 MMOL/KG OF DIET FOR 20 D BEGINNING 10 D PRIOR TO CARCINOGEN DOSE (STUDY DURATION: 18.5 WK), Route [Inhibitor]: ORAL, Species: RAT, Strain/Sex: SPRAGUE-DAWLEY/FEMALE, Target Tissue: Type of Lesion: MAMMARY GLAND: TUMOR, Dose [Carcinogen]: 15 MG IN 1 ML OF SESAME OIL ONCE AT 50 D OF AGE, Promoter: NONE USED", "value": "100%, 82%, 18%, not calculated"}, {"measurement": "tumour outcome (control, treated, inhibition, significance)", "setting": "Carcinogen: 7,12-DIMETHYLBENZ[A]ANTHRACENE, 57-97-6, Dose [Inhibitor]: 32 MMOL/KG OF CHOW DIET IN 25 ML OF THE VEHICLE (ETHANOL/TRICAPRYLIN 1:4 (VOL/VOL) PLUS 6% (WT/VOL) ALPHA-TOCOPHEROL) BE, Route [Inhibitor]: ORAL, Species: RAT, Strain/Sex: SPRAGUE-DAWLEY/FEMALE, Target Tissue: Type of Lesion: MAMMARY GLAND: TUMOR, Dose [Carcinogen]: 75 MG/KG BW IN 1.0 ML SESAME OIL ONCE, Promoter: NONE USED", "value": "70%, 55%, 21%, not significant"}, {"measurement": "tumour outcome (control, treated, inhibition, significance)", "setting": "Carcinogen: 7,12-DIMETHYLBENZ[A]ANTHRACENE, 57-97-6, Dose [Inhibitor]: 64 MMOL/KG OF CHOW DIET IN 25 ML OF THE VEHICLE (ETHANOL/TRICAPRYLIN 1:4 (VOL/VOL) PLUS 6% (WT/VOL) ALPHA-TOCOPHEROL) BE, Route [Inhibitor]: ORAL, Species: RAT, Strain/Sex: SPRAGUE-DAWLEY/FEMALE, Target Tissue: Type of Lesion: MAMMARY GLAND: TUMOR, Dose [Carcinogen]: 75 MG/KG BW IN 1.0 ML SESAME OIL ONCE, Promoter: NONE USED", "value": "70%, 55%, 21%, not significant"}, {"measurement": "tumour outcome (control, treated, inhibition, significance)", "setting": "Carcinogen: 7,12-DIMETHYLBENZ[A]ANTHRACENE, 57-97-6, Dose [Inhibitor]: 128 MMOL/KG OF CHOW DIET IN 25 ML OF THE VEHICLE (ETHANOL/TRICAPRYLIN 1:4 (VOL/VOL) PLUS 6% (WT/VOL) ALPHA-TOCOPHEROL) B, Route [Inhibitor]: ORAL, Species: RAT, Strain/Sex: SPRAGUE-DAWLEY/FEMALE, Target Tissue: Type of Lesion: MAMMARY GLAND: TUMOR, Dose [Carcinogen]: 75 MG/KG BW IN 1.0 ML SESAME OIL ONCE, Promoter: NONE USED", "value": "70%, 35%, 50%, not significant"}, {"measurement": "tumour outcome (control, treated, inhibition, significance)", "setting": "Carcinogen: AZOXYMETHANE [25843-45-2], Dose [Inhibitor]: 3.5% IN DIET FOR 38 WK BEGINNING 1 WK POST LAST CARCINOGEN DOSE (STUDY DURATION: 40 WK), Route [Inhibitor]: ORAL, Species: RAT, Strain/Sex: F344/MALE, Target Tissue: Type of Lesion: COLON: TUMOR, Dose [Carcinogen]: 15 MG/KG BW 1X/WK FOR 2 WK (STUDY DURATION: 40 WK), Promoter: NONE", "value": "15/26 (57.7%), 6/24 (25.0%), 57%, p<0.05"}]}, {"smiles": "Nc1ncn[nH]1", "values": [{"measurement": "tumour outcome (control, treated, inhibition, significance)", "setting": "Carcinogen: DIETHYLSTILBESTROL, 56-53-1, Dose [Inhibitor]: 0, 1500 PPM IN DRINKING WATER 47 D POST FIRST DOSE OF CARCINOGEN (STUDY DURATION: 6 MO), Route [Inhibitor]: ORAL, Species: RAT, Strain/Sex: WF/MALE, Target Tissue: Type of Lesion: LIVER: HEPATOCELLULAR CARCINOMA, Dose [Carcinogen]: 5 MG ONTO BACK 1/2 MO FOR 6 MO, Promoter: NONE USED", "value": "1/9 (11%), 0/11 (0%), 100%, not calculated"}, {"measurement": "tumour outcome (control, treated, inhibition, significance)", "setting": "Carcinogen: DIETHYLSTILBESTROL, 56-53-1, Dose [Inhibitor]: 0, 1500 PPM IN DRINKING WATER 47 D POST FIRST DOSE OF CARCINOGEN (STUDY DURATION: 6 MO), Route [Inhibitor]: ORAL, Species: RAT, Strain/Sex: WF/MALE, Target Tissue: Type of Lesion: PITUITARY: TUMOR, Dose [Carcinogen]: 5 MG ONTO BACK 1/2 MO FOR 6 MO, Promoter: NONE USED", "value": "7/9 (78%), 8/11 (73%), 6%, not significant"}]}, {"smiles": "Nc1nc2ncc(CNc3ccc(C(=O)N[C@@H](CCC(=O)O)C(=O)O)cc3)nc2c(=O)[nH]1", "values": [{"measurement": "tumour outcome (control, treated, inhibition, significance)", "setting": "Carcinogen: HYDRAZINE SULFATE, 10034-93-2, Dose [Inhibitor]: 1.1 MG/D IN DIET STARTING 1 WK PRIOR TO ADMINISTRATION OF CARCINOGEN UNTIL END OF EXPERIMENT (STUDY DURATION: APPROXIMAT, Route [Inhibitor]: ORAL, Species: MOUSE, Strain/Sex: SWISS/MALE, FEMALE, Target Tissue: Type of Lesion: LIVER AND LUNG: COMBINED TUMORS, Dose [Carcinogen]: 1.1 MG/D 5 D/WK UNTIL 12 MO OF AGE, Promoter: NONE USED", "value": "24/29 (83%), 19/31 (61%), 26%, p<0.1"}, {"measurement": "tumour outcome (control, treated, inhibition, significance)", "setting": "Carcinogen: ISONIAZID, 54-85-3, Dose [Inhibitor]: 1.1 MG/D SIMULTANEOUS WITH CARCINOGEN 6 D/WK (STUDY DURATION: LIFETIME), Route [Inhibitor]: INTRAGASTRIC, Species: MOUSE, Strain/Sex: SWISS/MALE, Target Tissue: Type of Lesion: LUNG: TUMOR, Dose [Carcinogen]: 1.1 MG/D SIMULTANEOUS WITH INHIBITOR, Promoter: NONE USED", "value": "15/29 (52%), 0/16 (0%), 100%, p<0.01"}, {"measurement": "tumour outcome (control, treated, inhibition, significance)", "setting": "Carcinogen: N-methyl-N'-nitro-N-nitrosoguanidine, 70-25-7, Dose [Inhibitor]: 0, 5 mg/kg in water for 50 weeks beginning at 6 weeks of age, Route [Inhibitor]: Oral, Species: Rat, Strain/Sex: Wistar/Male, Target Tissue: Type of Lesion: Stomach: Tumor, Dose [Carcinogen]: 100 mg/L in drinking water for 50 weeks", "value": "5/11 (45.5%), 0/10 (0%), 100% p<0.05"}]}, {"smiles": "CC1=CCC(O)(C(C)C)CC1", "note": "(stereo not drawn)", "values": [{"measurement": "outcome", "setting": "Dose [Inhibitor]: 10 MG/KG BW DAILY BETWEEN 45 AND 59 D OF AGE (STUDY DURATION: 1 YR), Route [Inhibitor]: INTRAGASTRIC (GASTRIC) IN HYDROXYETHYLCELLULOSE SODIUM, Species: RAT, Strain/Sex: SPRAGUE-DAWLEY/FEMALE, Dose [Carcinogen]: 75 MG/KG BW IN SESAME OIL (ONCE) AT 60 D OF AGE", "value": "75%, 85%"}, {"measurement": "outcome", "setting": "Dose [Inhibitor]: 10 MG/KG BW DAILY FOR 6 MO AFTER CARCINOGEN ADMINISTRATION, Route [Inhibitor]: INTRAGASTRIC (GASTRIC), Species: RAT, Strain/Sex: SPRAGUE-DAWLEY/FEMALE, Dose [Carcinogen]: 75 MG/KG BW AT 55 D OF AGE (STUDY DURATION: 1 YR)", "value": "75%, 58%"}]}]}
